Source: article PMC7176436, “Post-translational regulation of retinal IMPDH1 in vivo to adjust GTP synthesis to illumination conditions” (eLife, 2020)

Target: T1, IMPDH1 (murine retinal) (Mus musculus, UniProt P50096)
T1 construct: native, murine retina
Experiment: IMPDH1 spicule formation in retinas treated with […] MPA; SDS-PAGE mobility shift after injection of its prodrug MMF
Assay type: cell-based

T1 sequence (P50096 whole entry): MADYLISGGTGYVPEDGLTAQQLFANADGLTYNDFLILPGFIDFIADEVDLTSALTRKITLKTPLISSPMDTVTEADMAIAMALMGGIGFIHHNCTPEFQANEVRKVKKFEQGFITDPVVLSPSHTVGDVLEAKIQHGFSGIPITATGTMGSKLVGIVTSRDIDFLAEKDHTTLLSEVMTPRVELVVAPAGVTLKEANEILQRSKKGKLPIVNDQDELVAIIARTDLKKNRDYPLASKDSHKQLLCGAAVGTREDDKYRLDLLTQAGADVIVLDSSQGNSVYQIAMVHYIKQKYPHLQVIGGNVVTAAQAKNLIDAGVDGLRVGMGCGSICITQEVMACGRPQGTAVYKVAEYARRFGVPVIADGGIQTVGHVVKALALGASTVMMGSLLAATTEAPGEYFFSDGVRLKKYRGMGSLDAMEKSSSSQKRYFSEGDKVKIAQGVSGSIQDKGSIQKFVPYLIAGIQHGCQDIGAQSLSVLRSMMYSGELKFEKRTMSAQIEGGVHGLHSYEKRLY

## COc1c(C)c2c(c(O)c1C/C=C(\C)CCC(=O)O)C(=O)OC2 [mycophenolic acid]
  IMPDH1 spicule formation in retinas treated with 10 μM MPA; SDS-PAGE mobility sh: MPA inhibition of IMPDH1 resulted in the formation and accumulation of IMPDH1 spicules with time
